From publication PMC3049928 (Archives of biochemistry and biophysics, 2010)

Molecular target: SULT1A1 (human phenol sulfotransferase, human sulfotransferase 1A1) (Homo sapiens, UniProt P50225)
Assay: pNPS assay of PAP sulfation, p-nitrophenol absorbance at […] nm
Type: biochemical

SULT1A1 (human phenol sulfotransferase, human sulfotransferase 1A1), sequence (P50225 whole entry): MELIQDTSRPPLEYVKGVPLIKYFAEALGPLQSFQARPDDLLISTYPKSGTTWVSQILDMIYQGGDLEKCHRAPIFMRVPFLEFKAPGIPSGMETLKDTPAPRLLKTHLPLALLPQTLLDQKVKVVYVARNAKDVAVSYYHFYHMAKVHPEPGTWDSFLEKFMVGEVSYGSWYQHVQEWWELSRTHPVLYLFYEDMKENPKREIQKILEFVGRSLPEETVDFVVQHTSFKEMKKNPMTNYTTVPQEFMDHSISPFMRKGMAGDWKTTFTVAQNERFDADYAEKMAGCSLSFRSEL

Ki: 2600 ± 200 nM
SMILES: Oc1ccc2ccccc2c1 [2-naphthol]
